Measured values reported in ChEMBL document CHEMBL1250451, “Mechanistic insights into a Ca2+-dependent family of alpha-mannosidases in a human gut symbiont” (Nat Chem Biol, 2010).
Activity calls are given as the source filed them. The rule behind the calls is not given here.

Legend:
Assay type in all cases: protein assay
[1] = molecular target: T1, Alpha-1,2-mannosidase (BT_3858) (Bacteroides thetaiotaomicron) (UniProt Q8A113); experiment: Activity of Bacteroides thetaiotaomicron GH92 alpha-mannosidase GH92 alpha-mannosidase 3858 assessed as mannose release at 1 mM after 16 hrs by HPLC relative to untreated control after 16 hrs by HPLC
T1 sequence (whole entry): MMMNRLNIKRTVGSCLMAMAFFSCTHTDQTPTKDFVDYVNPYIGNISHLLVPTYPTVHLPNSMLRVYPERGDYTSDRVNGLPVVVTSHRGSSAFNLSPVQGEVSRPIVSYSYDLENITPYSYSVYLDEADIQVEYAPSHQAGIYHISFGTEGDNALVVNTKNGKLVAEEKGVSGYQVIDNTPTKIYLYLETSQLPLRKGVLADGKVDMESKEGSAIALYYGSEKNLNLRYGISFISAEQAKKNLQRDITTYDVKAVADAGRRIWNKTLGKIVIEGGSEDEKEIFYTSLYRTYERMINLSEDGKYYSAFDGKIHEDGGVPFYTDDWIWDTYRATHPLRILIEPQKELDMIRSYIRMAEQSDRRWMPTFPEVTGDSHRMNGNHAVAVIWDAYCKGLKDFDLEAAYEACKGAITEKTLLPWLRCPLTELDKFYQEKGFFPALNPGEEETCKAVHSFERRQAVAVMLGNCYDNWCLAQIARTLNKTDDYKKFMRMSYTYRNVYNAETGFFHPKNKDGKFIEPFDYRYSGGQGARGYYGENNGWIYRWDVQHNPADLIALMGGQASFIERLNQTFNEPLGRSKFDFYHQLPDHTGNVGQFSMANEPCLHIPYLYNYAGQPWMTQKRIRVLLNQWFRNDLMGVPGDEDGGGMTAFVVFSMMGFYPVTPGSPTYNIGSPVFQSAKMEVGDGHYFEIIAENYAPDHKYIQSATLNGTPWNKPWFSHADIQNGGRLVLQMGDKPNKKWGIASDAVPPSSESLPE

[2] = molecular target: T2, Glycoside hydrolase family 92 (BT_3962) (Bacteroides thetaiotaomicron) (UniProt Q8A0Q9); experiment: Activity of Bacteroides thetaiotaomicron GH92 alpha-mannosidase GH92 alpha-mannosidase 3962 assessed as mannose release at 1 mM after 16 hrs by HPLC relative to untreated control after 16 hrs by HPLC
T2 sequence (whole entry): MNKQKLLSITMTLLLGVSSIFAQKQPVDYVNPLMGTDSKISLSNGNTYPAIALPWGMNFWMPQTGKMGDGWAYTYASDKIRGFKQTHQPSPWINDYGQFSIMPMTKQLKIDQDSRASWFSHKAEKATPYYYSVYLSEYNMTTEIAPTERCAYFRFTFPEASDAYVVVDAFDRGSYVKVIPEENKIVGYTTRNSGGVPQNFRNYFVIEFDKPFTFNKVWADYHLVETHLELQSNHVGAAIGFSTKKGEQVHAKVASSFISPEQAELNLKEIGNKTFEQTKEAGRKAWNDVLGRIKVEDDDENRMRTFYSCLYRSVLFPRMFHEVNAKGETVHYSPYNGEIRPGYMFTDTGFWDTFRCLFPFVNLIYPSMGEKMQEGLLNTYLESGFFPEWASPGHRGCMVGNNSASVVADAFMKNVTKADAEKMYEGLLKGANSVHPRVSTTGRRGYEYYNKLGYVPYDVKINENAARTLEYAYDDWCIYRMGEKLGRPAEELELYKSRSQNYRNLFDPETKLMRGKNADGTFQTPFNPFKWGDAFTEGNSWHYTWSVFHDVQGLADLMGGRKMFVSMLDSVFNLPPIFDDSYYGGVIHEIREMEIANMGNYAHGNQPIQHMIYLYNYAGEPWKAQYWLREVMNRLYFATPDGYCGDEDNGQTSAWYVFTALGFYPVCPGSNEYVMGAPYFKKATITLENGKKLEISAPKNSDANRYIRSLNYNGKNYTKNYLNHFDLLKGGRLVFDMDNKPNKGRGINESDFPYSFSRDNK

[3] = molecular target: T3, Alpha-1,2-mannosidase (BT_3990) (Bacteroides thetaiotaomicron) (UniProt Q8A0N1); experiment: Activity of Bacteroides thetaiotaomicron GH92 alpha-mannosidase GH92 alpha-mannosidase 3990 assessed as mannose release at 1 mM after 16 hrs by HPLC relative to untreated control after 16 hrs by HPLC
T3 sequence (whole entry): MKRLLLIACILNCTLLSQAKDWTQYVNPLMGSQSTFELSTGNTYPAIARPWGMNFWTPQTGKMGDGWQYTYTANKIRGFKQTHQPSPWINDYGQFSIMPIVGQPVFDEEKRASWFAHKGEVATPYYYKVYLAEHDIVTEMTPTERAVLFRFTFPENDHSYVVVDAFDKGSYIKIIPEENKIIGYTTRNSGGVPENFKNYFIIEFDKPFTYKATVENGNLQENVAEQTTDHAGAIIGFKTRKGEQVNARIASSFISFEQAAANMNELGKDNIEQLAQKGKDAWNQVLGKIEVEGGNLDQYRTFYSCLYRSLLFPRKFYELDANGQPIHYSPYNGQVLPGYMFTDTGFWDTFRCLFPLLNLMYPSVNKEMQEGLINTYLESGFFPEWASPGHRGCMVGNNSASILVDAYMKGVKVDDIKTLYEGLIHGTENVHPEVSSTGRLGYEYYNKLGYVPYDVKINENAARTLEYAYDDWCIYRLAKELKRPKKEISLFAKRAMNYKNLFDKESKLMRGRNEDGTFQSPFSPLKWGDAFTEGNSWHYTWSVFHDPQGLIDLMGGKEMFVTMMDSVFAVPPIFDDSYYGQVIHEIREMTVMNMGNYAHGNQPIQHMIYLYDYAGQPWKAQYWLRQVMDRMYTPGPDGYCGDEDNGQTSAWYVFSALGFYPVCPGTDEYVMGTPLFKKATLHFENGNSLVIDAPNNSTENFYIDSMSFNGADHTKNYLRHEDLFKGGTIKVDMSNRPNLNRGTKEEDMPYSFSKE

Compound	Activity [1]	Activity [2]	Activity [3]
OC[C@H]1O[C@H](OC[C@H]2O[C@H](O)[C@@H](O)[C@@H](O)[C@@H]2O)[C@@H](O)[C@@H](O)[C@@H]1O	0.0025%	0.0031%	inactive
OC[C@H]1O[C@H](O[C@H]2[C@H](O)[C@H](O)[C@@H](O)O[C@@H]2CO)[C@@H](O)[C@@H](O)[C@@H]1O	0.1%	0.042%	0.022%
OC[C@H]1O[C@H](O[C@H]2[C@@H](O)[C@H](O)[C@@H](CO)O[C@@H]2O)[C@@H](O)[C@@H](O)[C@@H]1O	0.045%	100%	100%
OC[C@H]1O[C@H](O[C@@H]2[C@H](O)[C@@H](O)O[C@H](CO)[C@H]2O)[C@@H](O)[C@@H](O)[C@@H]1O	–	inactive	0.036%
